Measured values taken from patent US4820695A, “C-20-dihydro-deoxy-(cyclic amino)-derivatives of macrolide antibiotics” (priority 1987, dated 1989).
In brackets after ≈: the same amount, converted by molar mass. Several values for one entry are separate records, joined by “and”; a condition that tells them apart may be missing. Equal values may be shown once. Read-outs that look alike come from different tables or passages of the source.

How the values were obtained:
Pasteurella multocida [1] = test: Pasteurella infection in one-day-old chicks, subcutaneous administration (Table XII); format: in vivo; conditions: Administered subcutaneously, 30 mg/kg × 2, 1 and 4 hours post-challenge
In short: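 One-day-old chicks were challenged subcutaneously with 0.1 ml of a 10^-4 dilution of a 20-h tryptose broth culture of avian P. multocida. Compounds were then given by subcutaneous injection at 30 mg/kg, at 1 and 4 hours post-challenge.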

[2] = test system: Pasteurella hemolytica 22C; test: MIC, broth-dilution microtiter test (Table X); format: cell-based; conditions: read-out: MIC
Description: (§1) The MIC's in Table X were obtained using conventional broth-dilution microtiter tests.

[3] = test system: Pasteurella multocida 17E; test: MIC, broth-dilution microtiter test (Table X); format: cell-based; conditions: Bovine isolate, read-out: MIC
Description: as §1

[4] = test system: Mycoplasma hyopneumoniae S5972; test: MIC, broth-dilution microtiter test (Table X); format: cell-based; conditions: Mesomycoplasma hyopneumoniae, read-out: MIC
Description: as §1

[5] = test system: Staphylococcus aureus 19C; test: MIC, broth-dilution microtiter test (Table X); format: cell-based
Description: as §1

[6] = test system: Pasteurella multocida 60A; test: MIC, broth-dilution microtiter test (Table X); format: cell-based; conditions: Avian isolate, read-out: MIC
Description: as §1

Streptococcus sp. 19F = test: MIC, broth-dilution microtiter test (Table X); format: cell-based; conditions: read-out: MIC
Description: as §1

Mycoplasma hyorhinis 29E = test: MIC, broth-dilution microtiter test (Table X); format: cell-based; conditions: read-out: MIC
Description: as §1

[7] = test system: Mycoplasma gallisepticum 29C; test: MIC, broth-dilution microtiter test (Table X); format: cell-based; conditions: Mycoplasmoides gallisepticum, read-out: MIC
Description: as §1

Mycoplasma synoviae 40A = test: MIC, broth-dilution microtiter test (Table X); format: cell-based; conditions: Mycoplasmopsis synoviae, read-out: MIC
Description: as §1

[8] = test system: Streptococcus Group D X66; test: MIC, standard agar-dilution assay (Table IX); format: cell-based; conditions: read-out: MIC
[9] = test system: Streptococcus pneumoniae Park I; test: MIC, standard agar-dilution assay (Table IX); format: cell-based; conditions: Streptococcus pneumoniae Park I; agar-dilution; read-out: MIC
[10] = test system: Streptococcus pyogenes C203; test: ED50 in mice experimentally infected with S. pyogenes C203 (Table XI); format: in vivo; conditions: Streptococcus pyogenes, doses given 1 and 4 hours postinfection, read-out: ED50
In short: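 Mice infected with S. pyogenes C203 received two doses of compound, 1 and 4 h post-infection. ED50 is the dose in mg/kg (per dose, ×2) protecting 50% of animals.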

[11] = Blood and tissue levels after a single injection; format: in vivo
Description: A special advantage of this invention is that certain of the compounds are effective when administered as a single injection.

[12] = test system: Staphylococcus epidermidis 222; test: MIC, standard agar-dilution assay (Table IX); format: cell-based; conditions: read-out: MIC
Pasteurella multocida [13] = test: Pasteurella infection in one-day-old chicks, medicated drinking water (Table XIII); format: in vivo; conditions: Administered in the available drinking water at 2 g/gal
In short: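 One-day-old chicks were challenged subcutaneously with 0.1 ml of a 10^-4 dilution of a 20-hour tryptose broth culture of avian P. multocida. Compound was given in drinking water at 2 g/gal, available from 4 to 20 hours before challenge and throughout the 3-day test period.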

[14] = test system: Streptococcus pyogenes C203; test: MIC, standard agar-dilution assay (Table IX); format: cell-based; conditions: read-out: MIC
Klebsiella X26 = test: MIC, standard agar-dilution assay (Table IX); format: cell-based; conditions: read-out: MIC
[15] = test system: Staphylococcus aureus X400; test: MIC, standard agar-dilution assay (Table IX); format: cell-based; conditions: Staphylococcus aureus X400, Methicillin-resistant strain, read-out: MIC
[16] = test system: Staphylococcus aureus V41; test: MIC, standard agar-dilution assay (Table IX); format: cell-based; conditions: Staphylococcus aureus V41, Penicillin-resistant strain, read-out: MIC
[17] = test system: Staphylococcus aureus S13E; test: MIC, standard agar-dilution assay (Table IX); format: cell-based; conditions: Staphylococcus aureus, S13E
Escherichia coli EC14 = test: MIC, standard agar-dilution assay (Table IX); format: cell-based; conditions: read-out: MIC
Escherichia coli N10 = test: MIC, standard agar-dilution assay (Table IX); format: cell-based; conditions: read-out: MIC
[18] = test system: Haemophilus influenzae C.L.; test: MIC, standard agar-dilution assay (Table IX); format: cell-based; conditions: Ampicillin-sensitive strain, read-out: MIC
[19] = test system: Streptococcus Group D 2041; test: MIC, standard agar-dilution assay (Table IX); format: cell-based; conditions: GROUPD2041, read-out: MIC
Escherichia coli TEM = test: MIC, standard agar-dilution assay (Table IX); format: cell-based; conditions: read-out: MIC
[20] = test system: Staphylococcus epidermidis EPI1; test: MIC, standard agar-dilution assay (Table IX); format: cell-based; conditions: Staphylococcus epidermidis EPI1; agar-dilution; read-out: MIC
[21] = test system: Haemophilus influenzae 76; test: MIC, standard agar-dilution assay (Table IX); format: cell-based; conditions: Haemophilus influenzae 76, Ampicillin-resistant strain, read-out: MIC
Staphyloccus aureus X1.1 = test: MIC, standard agar-dilution assay (Table IX); format: cell-based, Staphylococcus aureus; conditions: Staphylococcus aureus, read-out: MIC
Staphylococcus aureus = test: MIC, broth-dilution microtiter test (Table X); format: cell-based; conditions: read-out: MIC
Description: as §1

[22] = Titratable groups in 66% aqueous DMF (Tables XIV-XVI); format: physicochemical
Description: ^c Run in 66% aqueous DMF
^d Run in 66% aqueous DMF

Group D strain 9960 = test: MIC, standard agar-dilution assay (Table IX); format: cell-based, Streptococcus Group D; conditions: tested using predecessor Group D strain 9960

| SMILES | Number of Deaths/Number Treated (Pasteurella multocida [1]) | MIC [2] [µg/mL] | MIC [3] [µg/mL] | MIC [6] [µg/mL] | MIC (Streptococcus sp. 19F) [µg/mL] | MIC (Mycoplasma hyorhinis 29E) [µg/mL] | MIC [7] [µg/mL] | MIC (Mycoplasma synoviae 40A) [µg/mL] | MIC [8] [µg/mL] | MIC [9] [µg/mL] | ED50 ([10]; C203, Oral) [mg/kg] | ED50 ([10]; C203, sc, Subcutaneous) [mg/kg] | MIC [12] [µg/mL] | MIC [14] [µg/mL] | MIC (Klebsiella X26) [µg/mL] | MIC [15] [µg/mL] | MIC [16] [µg/mL] | MIC [17] [µg/mL] | MIC (Escherichia coli EC14) [µg/mL] | MIC (Escherichia coli N10) [µg/mL] | further results |
| --- | --- | --- | --- | --- | --- | --- | --- | --- | --- | --- | --- | --- | --- | --- | --- | --- | --- | --- | --- | --- | --- |
| CCC1OC(=O)CC(O)C(C)C(OC2OC(C)C(O)C(N(C)C)C2O)C(CCN2C[C@H](C)C[C@H](C)C2)CC(C)C(=O)C=CC(C)=CC1COC1OC(C)C(O)C(OC)C1OC (stereo partly drawn) [Compound D34, 20-DH-DO-20-(cis-3,5-dimethylpiperidine-1-yl)desmycosin] | 3/10 | 6.25 (≈ 7.19 µM) | 12.5 (≈ 14.4 µM) | 12.5 (≈ 14.4 µM) | 3.12 (≈ 3.59 µM) | 12.5 (≈ 14.4 µM) | 0.195 (≈ 0.224 µM) | 0.78 (≈ 0.897 µM) | 4 (≈ 4.6 µM) | 2 (≈ 2.3 µM) | 7.98 | < 0.625 | 0.25 (≈ 0.288 µM) | 0.5 (≈ 0.575 µM) | 64 (≈ 73.6 µM) | 1 (≈ 1.15 µM) | 1 (≈ 1.15 µM) | 0.5 (≈ 0.575 µM) | 128 (≈ 147 µM) | 128 (≈ 147 µM) | MIC [4]: 0.78 µg/mL (≈ 0.897 µM); MIC [5]: 3.12 µg/mL (≈ 3.59 µM); measurable blood and tissue levels of the drug [11]: prolonged measurable blood and tissue levels of the drug for as long as seven days; Number of Deaths/Number Treated (Pasteurella multocida [13]): 3/10 and 0/10 and 1/10 and 6/10; MIC [18]: 16 µg/mL (≈ 18.4 µM); MIC [19]: 8 µg/mL (≈ 9.2 µM); MIC (Escherichia coli TEM): 32 µg/mL (≈ 36.8 µM); MIC [20]: 0.5 µg/mL (≈ 0.575 µM); MIC [21]: 4 µg/mL (≈ 4.6 µM); MIC (Staphyloccus aureus X1.1): 1 µg/mL (≈ 1.15 µM) |
| CCC1OC(=O)CC(O)C(C)C(OC2OC(C)C(O)C(N(C)C)C2O)C(CCN2CCCCCCC2)CC(C)C(=O)C=CC(C)=CC1COC1OC(C)C(O)C(O)C1OC (centres unmarked) [Compound L5, 20-DH-DO-20-(octahydroazocin-1-yl)lactenocin] | 0/10 | 12.5 (≈ 14.6 µM) | 6.25 (≈ 7.31 µM) | 12.5 (≈ 14.6 µM) | 0.78 (≈ 0.912 µM) | 50 (≈ 58.5 µM) | 6.25 (≈ 7.31 µM) | 3.12 (≈ 3.65 µM) | 16 (≈ 18.7 µM) | 0.5 (≈ 0.585 µM) | 100 | 1.8 | 0.5 (≈ 0.585 µM) | 0.5 (≈ 0.585 µM) | 16 (≈ 18.7 µM) | 2 (≈ 2.34 µM) | 1 (≈ 1.17 µM) | 1 (≈ 1.17 µM) | > 128 | > 128 | MIC (Staphylococcus aureus): 1.56 µg/mL (≈ 1.82 µM); pKa ([22]; Titratable groups): 9.3; pKa ([22]; Titratable groups (first value)): 7.8; MIC (Group D strain 9960): 16 µg/mL (≈ 18.7 µM); MIC [18]: 32 µg/mL (≈ 37.4 µM); MIC (Escherichia coli TEM): 16 µg/mL (≈ 18.7 µM); MIC [20]: 1 µg/mL (≈ 1.17 µM); MIC [21]: 6 µg/mL (≈ 7.02 µM); MIC (Staphyloccus aureus X1.1): 1 µg/mL (≈ 1.17 µM) |
